Paper PMC4865847, “Putative histidine kinase inhibitors with antibacterial effect against multi-drug resistant clinical isolates identified by in vitro and in silico screens” (Scientific Reports, 2016)
In brackets after ≈: the same amount, converted by molar mass. Several values for one entry are separate records, joined by “and”; a condition that tells them apart may be missing. Equal entries are not always repeated. Where two headings read alike, the source gives them in different places. Marks after values point to notes of the source that are not given here.

Legend:
E. coli PhoR (PhoR^E) [1] = molecular target: T1, E. coli PhoR (PhoR^E) (Escherichia coli, UniProt P08400); assay: In vitro autophosphorylation kinase assay with γ-32P-ATP, PhoR^E; format: biochemical; conditions: for inhibition at 2000 µM: 2 mM, 30 sec, compared to negative control; for IC50: autophosphorylation, one time point (30 sec), 10% DMSO
T1 construct: The catalytic portion (DHp and CA domain) of E. coli PhoR (PhoR^E); made in house; host or cells: E. coli RIL
T1 sequence (P08400 210-425): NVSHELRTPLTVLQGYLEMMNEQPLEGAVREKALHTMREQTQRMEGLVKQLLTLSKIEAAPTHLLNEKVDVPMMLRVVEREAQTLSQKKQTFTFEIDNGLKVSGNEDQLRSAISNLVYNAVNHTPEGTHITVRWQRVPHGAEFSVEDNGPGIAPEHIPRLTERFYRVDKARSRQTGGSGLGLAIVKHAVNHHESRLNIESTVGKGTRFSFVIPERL
Outline: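 Histidine kinase (0.12 mg/ml, ≈4 μM) incubated with up to 20 mM fragment in 50 mM Tris HCl pH 8.5, 50 mM KCl, 5 mM MgCl2, 0.5 mM EDTA, 0.1 mM DTT; started with 0.1 μCi/μl γ-32P-ATP (0.03–0.06 μM ATP final). Phosphoprotein quantified by SDS-PAGE and phosphor-imaging, curve-fitted; DMSO controls.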

Staphylococcus aureus = assay: Antibacterial susceptibility testing (MIC/MBC), S. aureus; format: cell-based; conditions: for MIC S. aureus DSM 20231 / bacteriostatic or bactericidal for S. aureus DSM 20231: strain DSM 20231
Description: (§1) Minimal inhibitory concentrations (MICs) were determined following a standard double-dilution method. […] For S. pneumoniae MICs were determined by adapting the standard double-dilution method to anaerobic conditions and of this microorganism (use of Todd Hewitt Yeast extract with 200 U/mL of catalase and continuous monitoring of growth).

[2] = tested on: Staphylococcus epidermidis; assay: Antibacterial susceptibility testing (MIC/MBC), S. epidermidis; format: cell-based
Description: as §1

Escherichia coli = assay: Antibacterial susceptibility testing (MIC/MBC), E. coli; format: cell-based; conditions: Escherichia coli
Description: as §1

Streptococcus suis = assay: Antibacterial susceptibility testing (MIC), S. suis; format: cell-based; conditions: Streptococcus suis, read-out: MIC Streptococcus suis 3881/S10, strain 3881/S10
Outline: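 Compounds were serially double-diluted against each strain. The lowest concentration with no visible growth was recorded as the MIC. Dilutions around the MIC were then plated or regrown in MH medium to define the MBC. Pneumococcal testing ran anaerobically with catalase (200 U/mL) in Todd Hewitt yeast extract under continuous growth monitoring.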

Acinetobacter baumannii = assay: Antibacterial susceptibility testing (MIC), A. baumannii; format: cell-based
Outline: (§2)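 Susceptibility is given as MIC by the standard double-dilution method, defined as no visible growth. For S. pneumoniae, conditions were anaerobic with Todd Hewitt yeast extract plus 200 U/mL catalase.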

[3] = tested on: Stenotrophomonas maltophilia; assay: Antibacterial susceptibility testing (MIC), S. maltophilia; format: cell-based
Outline: as §2

Klebsiella pneumoniae = assay: Antibacterial susceptibility testing (MIC), K. pneumoniae; format: cell-based; conditions: for MIC: Klebsiella pneumoniae, ATCC700603, strain ATCC 700603; for MIC K. pneumoniae ATCC700603: strain ATCC 700603
Outline: as §2

Pseudomonas aeruginosa = assay: Antibacterial susceptibility testing (MIC), P. aeruginosa; format: cell-based; conditions: strain ATCC 27853; for MIC: Pseudomonas aeruginosa, ATCC27853
Outline: as §2

Hemolysis assay = format: cell-based; conditions: human
Description: Hemolytic activity against human erythrocytes taken from a healthy donor was measured as previously described. The hemolysis experiments were carried out in accordance with the guidelines of the United Arab Emirates University (UAEU) Research Ethics Review Board. All experimental protocols were approved by the Research Ethics Review Board of UAEU and informed consent was obtained from all donors.

E. coli PhoR (PhoR^E) [4] = molecular target: T1, E. coli PhoR (PhoR^E); assay: Aggregation analysis by native-PAGE, PhoR^E; conditions: 2 mM (S5 and S6 5 mM), 10% DMSO
Description: (§3) E. coli PhoR and EnvZ, and S. aureus PhoR ([…], final concentration) were prepared in kinase buffer. […] DMSO in the assays was maintained to a final concentration 10% (v/v). After 30 min of incubation at room temperature Native polyacrylamide gel electrophoresis (Native-PAGE) loading buffer was added and samples loaded. Coomassie blue staining was used for protein visualization.

S. aureus PhoR (PhoR^S) = S. aureus PhoR (PhoR^S) (Staphylococcus aureus, UniProt Q2FXN7); assay: Aggregation analysis by native-PAGE, PhoR^S; conditions: 2 mM (S5 and S6 5 mM), 10% DMSO
S. aureus PhoR (PhoR^S), sequence (Q2FXN7 entry or part of it): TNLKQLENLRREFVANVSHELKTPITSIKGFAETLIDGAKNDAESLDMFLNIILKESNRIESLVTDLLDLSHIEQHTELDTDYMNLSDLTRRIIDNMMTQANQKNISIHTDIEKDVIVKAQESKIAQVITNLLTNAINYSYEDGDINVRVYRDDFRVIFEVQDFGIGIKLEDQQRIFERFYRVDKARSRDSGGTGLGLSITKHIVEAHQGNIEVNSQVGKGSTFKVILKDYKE
Description: as §3

[5] = Solubility in kinase buffer; format: physicochemical; conditions: kinase buffer with 10% DMSO, pH 8.5, aqueous with cosolvent or surfactant or cyclodextrin, kinetic from dmso stock; kinase buffer in the presence of 10% DMSO; read-out: concentration above which not soluble / reduced solubility in kinase buffer
[6] = Staphylococcus aureus, ATCC reference strain 25293, read-out: MIC S. aureus 25293
[7] = Staphylococcus aureus, DSM20231, strain DSM 20231, read-out: MIC S. aureus DSM 20231
[8] = Staphylococcus aureus, MRSA clinical isolate 127/08, read-out: MIC S. aureus 127/08
[9] = Staphylococcus aureus, MRSA clinical isolate 145/08, read-out: MIC S. aureus 145/08
[10] = Staphylococcus aureus, MRSA clinical isolate 274/08, read-out: MIC S. aureus 274/08
[11] = Staphylococcus aureus, MRSA, MRSA clinical isolate S908, read-out: MIC S. aureus S908
[12] = Staphylococcus aureus, MRSA, MRSA clinical isolate T4/6, read-out: MIC S. aureus T4/6
[13] = Staphylococcus aureus, MRSA, MRSA clinical isolate V4180, read-out: MIC S. aureus V4180
[14] = Staphylococcus aureus, MRSA, summary over susceptible MRSA clinical isolates, read-out: MICs for MRSA strains
[15] = Staphylococcus epidermidis, DSM20044, strain DSM 20044, read-out: MIC S. epidermidis DSM 20044
[16] = Staphylococcus epidermidis, clinical isolate T7/3, read-out: MIC S. epidermidis T7/3
[17] = Staphylococcus epidermidis, clinical isolate T37/8, read-out: MIC S. epidermidis T37/8
[18] = Staphylococcus epidermidis, clinical isolate T6119, read-out: MIC S. epidermidis T6119
[19] = Staphylococcus epidermidis, strain RP62A (biofilm producer), read-out: MIC S. epidermidis RP62A
[20] = Staphylococcus epidermidis, strain RP62A/1 (non-biofilm producer), read-out: MIC S. epidermidis RP62A/1
[21] = ATCC25276, strain ATCC 25276, read-out: MIC E. coli ATCC 25276
[22] = strain CFT 073, read-out: MIC E. coli CFT 073
[23] = MDR clinical isolate NM8, read-out: MIC A. baumannii NM8
[24] = MDR clinical isolate NM35, read-out: MIC A. baumannii NM35
[25] = MDR clinical isolate NM75, read-out: MIC A. baumannii NM75
[26] = MDR clinical isolate NM109, read-out: MIC A. baumannii NM109
[27] = MDR clinical isolate NM124, read-out: MIC A. baumannii NM124
[28] = clinical isolate B5/5, read-out: MIC S. maltophilia B5/5
[29] = clinical isolate B6/2, read-out: MIC S. maltophilia B6/2
[30] = clinical isolate B32/1, read-out: MIC S. maltophilia B32/1

## CC(C)(C)c1ccc(O)c(CNc2ccccc2)c1 [S1.14, 4-tert-butyl-2-[(phenylamino)methyl]phenol]
E. coli PhoR (PhoR^E) [1]
  inhibition at 2000 µM: > 40%
E. coli PhoR (PhoR^E) [1]; read-out: IC50 PhoR^E
  IC50: > 2000 µM
Staphylococcus aureus; [6]
  MIC: 125 mg/L (≈ 490 µM)
Staphylococcus aureus; Staphylococcus aureus, DSM20231, strain DSM 20231, read-out: MBC S. aureus DSM 20231
  MBC: 500 mg/L (≈ 1960 µM)
Staphylococcus aureus; [7]
  MIC: 500 mg/L (≈ 1960 µM)
Staphylococcus aureus; [8]
  MIC: 250 mg/L (≈ 979 µM)
Staphylococcus aureus; [9]
  MIC: 250 mg/L (≈ 979 µM)
Staphylococcus aureus; [10]
  MIC: 250 mg/L (≈ 979 µM)
Staphylococcus aureus; [11]
  MIC: 250 mg/L (≈ 979 µM)
Staphylococcus aureus; [12]
  MIC: 250 mg/L (≈ 979 µM)
Staphylococcus aureus; [13]
  MIC: 250 mg/L (≈ 979 µM)
Staphylococcus aureus; [14]
  MIC: 250 mg/L (≈ 979 µM)
Staphylococcus aureus
  MIC S. aureus DSM 20231: 500^¶ μg/ml
  bacteriostatic or bactericidal for S. aureus DSM 20231: bactericidal
[2]; Staphylococcus epidermidis, DSM20044, strain DSM 20044
  MBC: 500 mg/L (≈ 1960 µM)
[2]; [15]
  MIC: 500 mg/L (≈ 1960 µM)
[2]; [16]
  MIC: 250 mg/L (≈ 979 µM)
[2]; [17]
  MIC: 500 mg/L (≈ 1960 µM)
[2]; [18]
  MIC: 500 mg/L (≈ 1960 µM)
[2]; [19]
  MIC: > 500 mg/L
[2]; [20]
  MIC: 500 mg/L (≈ 1960 µM)
[2]; Staphylococcus epidermidis, summary over strains, read-out: MICs for the S. epidermidis strains
  MIC: 250 to 500 mg/L (≈ 979 to 1960 µM)
[2]; strain DSM 20044
  MIC S. epidermidis DSM 20044: 500^¶ μg/ml
  bacteriostatic or bactericidal for S. epidermidis DSM 20044: bactericidal
Escherichia coli; [21]
  MIC: > 500 mg/L
Escherichia coli; [22]
  MIC: > 500 mg/L
Streptococcus suis
  MIC: 125 mg/L (≈ 490 µM)
Acinetobacter baumannii; [23]
  MIC: 500 mg/L (≈ 1960 µM)
Acinetobacter baumannii; [24]
  MIC: 500 mg/L (≈ 1960 µM)
Acinetobacter baumannii; [25]
  MIC: 500 mg/L (≈ 1960 µM)
Acinetobacter baumannii; [26]
  MIC: 250 mg/L (≈ 979 µM)
Acinetobacter baumannii; [27]
  MIC: 250 mg/L (≈ 979 µM)
Acinetobacter baumannii; summary over strains, read-out: MICs for A. baumannii strains
  MIC: 250 to 500 mg/L (≈ 979 to 1960 µM)
[3]; [28]
  MIC: 500 mg/L (≈ 1960 µM)
[3]; [29]
  MIC: 500 mg/L (≈ 1960 µM)
[3]; [30]
  MIC: 500 mg/L (≈ 1960 µM)
[3]; summary over strains, read-out: MICs for S. maltophilia strains
  MIC: 250 to 500 mg/L (≈ 979 to 1960 µM)
Klebsiella pneumoniae
  MIC: > 500 mg/L
  MIC K. pneumoniae ATCC700603: >500 mg/L
Pseudomonas aeruginosa
  MIC: > 500 mg/L
  MIC P. aeruginosa ATCC 27853: >500 mg/L
Hemolysis assay
  HC50: > 500 µg/mL
E. coli PhoR (PhoR^E) [4]
  HK aggregation, PhoR^E: do not cause HK aggregation
S. aureus PhoR (PhoR^S)
  HK aggregation, PhoR^S: do not cause HK aggregation

## CC(=O)Nc1cccc(-c2ccccc2Cl)c1 [S1.7, N-[3-(2-chlorophenyl)phenyl]acetamide]
E. coli PhoR (PhoR^E) [1]
  inhibition at 2000 µM: > 40%
E. coli PhoR (PhoR^E) [1]; IC50 PhoR^E
  IC50: 100 µM and ~100 µM
Staphylococcus aureus; [6]
  MIC: 125 mg/L (≈ 509 µM)
Staphylococcus aureus; [7]
  MIC: 250 mg/L (≈ 1020 µM)
Staphylococcus aureus; [8]
  MIC: > 500 mg/L
Staphylococcus aureus; [9]
  MIC: > 500 mg/L
Staphylococcus aureus; [10]
  MIC: 250 mg/L (≈ 1020 µM)
Staphylococcus aureus; [11]
  MIC: > 500 mg/L
Staphylococcus aureus; [12]
  MIC: 250 mg/L (≈ 1020 µM)
Staphylococcus aureus; [13]
  MIC: > 500 mg/L
Staphylococcus aureus; [14]
  MIC: ≥ 250 mg/L
Staphylococcus aureus
  MIC S. aureus DSM 20231: 250^# μg/ml
  bacteriostatic or bactericidal for S. aureus DSM 20231: bacteriostatic
[2]; [15]
  MIC: > 500 mg/L
[2]; [16]
  MIC: > 500 mg/L
[2]; [17]
  MIC: > 500 mg/L
[2]; [18]
  MIC: > 500 mg/L
[2]; [19]
  MIC: > 500 mg/L
[2]; [20]
  MIC: > 500 mg/L
Escherichia coli; [21]
  MIC: > 500 mg/L
Escherichia coli; [22]
  MIC: > 500 mg/L
Streptococcus suis
  MIC: > 500 mg/L
Acinetobacter baumannii; [23]
  MIC: > 500 mg/L
Acinetobacter baumannii; [24]
  MIC: > 500 mg/L
Acinetobacter baumannii; [25]
  MIC: > 500 mg/L
Acinetobacter baumannii; [26]
  MIC: > 500 mg/L
Acinetobacter baumannii; [27]
  MIC: > 500 mg/L
[3]; [28]
  MIC: > 500 mg/L
[3]; [29]
  MIC: > 500 mg/L
[3]; [30]
  MIC: > 500 mg/L
Klebsiella pneumoniae
  MIC: > 500 mg/L
  MIC K. pneumoniae ATCC700603: >500 mg/L
Pseudomonas aeruginosa
  MIC: > 500 mg/L
  MIC P. aeruginosa ATCC 27853: >500 mg/L
Hemolysis assay
  HC50: > 500 µg/mL
E. coli PhoR (PhoR^E) [4]
  HK aggregation, PhoR^E: do not cause HK aggregation
S. aureus PhoR (PhoR^S)
  HK aggregation, PhoR^S: do not cause HK aggregation
[5]
  solubility: ≤ 1000 µM
